{"source": "paper PMC5996983", "about": "(Environmental science & technology, 2017)", "key": {"[1]": {"test_system": "embryonic zebrafish (Danio rerio)", "experiment": "Embryonic zebrafish developmental toxicity bioassay", "conditions": "for developmental toxicity to embryonic zebrafish: single compound standards, nominal 0.01 – 60 µM, exposure 6–120 hpf; for relative order of mean EC50: single standards, 120 hpf"}, "alkene monooxygenase": {"test_system": "alkene monooxygenase", "experiment": "Inhibition of PHE transformation in ELW1 by 1-octyne", "type": "cell-based, Mycobacterium sp. strain ELW1", "conditions": "~7 µmol 1-octyne in the aqueous media"}, "[2]": {"test_system": "Mycobacterium sp. strain ELW1", "experiment": "PHE transformation by ELW1, resting cell tests"}, "Mycobacterium sp. A1-PYR": {"test_system": "Mycobacterium sp. A1-PYR", "conditions": "cited from earlier work"}, "[3]": {"conditions": "96-well plates ref 64; cited from earlier work"}, "[4]": {"conditions": "cited from earlier work"}, "Pasteurella spp.": {"test_system": "Pasteurella spp.", "conditions": "cited from earlier work"}, "[5]": {"test_system": "Mycobacterium sp. strains PYRGCK, JS19b1, czh-3, czh-117", "conditions": "cited from earlier work"}, "Mycobacterium sp. PYR-1": {"test_system": "Mycobacterium sp. PYR-1", "conditions": "cited from earlier work"}}}
{"smiles": "Oc1cc2ccccc2c2ccccc12", "note": "[9-OHPHE, 9-hydroxyphenanthrene]", "values": [{"measurement": "developmental toxicity to embryonic zebrafish", "setting": "[1]", "result": "toxic"}]}
{"smiles": "C#CCCCCCC", "note": "[1-Octyne, 1-octyne]", "values": [{"measurement": "inhibition of PHE degradation", "setting": "alkene monooxygenase", "result": "effectively, but not completely, inhibited"}]}
{"smiles": "O[C@@H]1c2ccccc2-c2ccccc2[C@H]1O", "note": "(relative stereo) [trans-9,10-OHPHE, trans-9,10-dihydroxy-9,10-dihydrophenanthrene]", "values": [{"measurement": "developmental toxicity to embryonic zebrafish", "setting": "[1]", "result": "not toxic"}]}
{"smiles": "Oc1cccc2c1ccc1ccccc12", "note": "[1-OHPHE, 1-hydroxyphenanthrene]", "values": [{"measurement": "developmental toxicity to embryonic zebrafish", "setting": "[1]", "result": "toxic"}, {"measurement": "relative order of mean EC50", "setting": "[1]", "result": "least toxic"}]}
{"smiles": "Oc1cccc2ccc3ccccc3c12", "note": "[4-OHPHE, 4-hydroxyphenanthrene]", "values": [{"measurement": "developmental toxicity to embryonic zebrafish", "setting": "[1]", "result": "toxic"}]}
{"smiles": "Oc1cc2c(O)cccc2c2ccccc12", "note": "[1,9-OHPHE, 1,9-dihydroxyphenanthrene]", "values": [{"measurement": "developmental toxicity to embryonic zebrafish", "setting": "[1]", "result": "toxic"}, {"measurement": "relative order of mean EC50", "setting": "[1]", "result": "most toxic"}]}
{"smiles": "c1ccc2c(c1)ccc1ccccc12", "note": "[PHE, phenanthrene]", "values": [{"measurement": "first-order PHE transformation rate, kPHE", "setting": "[2]; 1-octyne controls", "result": "0.015 to 0.10", "unit": "h⁻¹"}, {"measurement": "half-life, t1/2", "setting": "[2]; 1-octyne controls", "result": "7.0 to 47", "unit": "h"}, {"measurement": "half-life, t1/2", "setting": "[2]; PHE-exposed cells", "result": "1.4 to 4.3", "unit": "h"}, {"measurement": "zero-order transformation rate", "setting": "Mycobacterium sp. A1-PYR", "result": -0.019, "unit": "µmol/h"}, {"measurement": "sorptive losses in test system", "setting": "[3]", "result": "less than 10%"}, {"measurement": "water solubility", "setting": "[4]", "result": "~ 7 µM"}, {"measurement": "non-normalized first-order rate of PHE transformation", "setting": "Pasteurella spp.", "result": -0.0005, "unit": "h⁻¹"}, {"measurement": "zero-order transformation rate", "setting": "[5]", "result": "−0.0020 to −0.019", "unit": "µmol hr^−1"}, {"measurement": "non-normalized first-order rate of PHE transformation", "setting": "Mycobacterium sp. PYR-1", "result": -0.0015, "unit": "h⁻¹"}]}
{"smiles": "Oc1ccc2ccc3ccccc3c2c1", "note": "[3-OHPHE, 3-hydroxyphenanthrene]", "values": [{"measurement": "developmental toxicity to embryonic zebrafish", "setting": "[1]", "result": "toxic"}]}
